Data taken from PMC9234671, “Molecular determinants of αVβ5 localization in flat clathrin lattices – role of αVβ5 in cell adhesion and proliferation” (Journal of Cell Science, 2022).
“Also recorded” adds a separate entry of the source.

Assays:
full-length human ARH = biological target: T1, full-length human ARH (Homo sapiens, UniProt Q5SW96); assay: Microscale thermophoresis (MST), ARH; type: binding; settings: concentration range tested up to 50 µM for β1
T1 construct: The full-length human ARH gene was cloned into the pETNKI-6xhis-3C-LIC vector; made in house; host or cells: E. coli BL21(DE3)
T1 sequence (Q5SW96 1-308): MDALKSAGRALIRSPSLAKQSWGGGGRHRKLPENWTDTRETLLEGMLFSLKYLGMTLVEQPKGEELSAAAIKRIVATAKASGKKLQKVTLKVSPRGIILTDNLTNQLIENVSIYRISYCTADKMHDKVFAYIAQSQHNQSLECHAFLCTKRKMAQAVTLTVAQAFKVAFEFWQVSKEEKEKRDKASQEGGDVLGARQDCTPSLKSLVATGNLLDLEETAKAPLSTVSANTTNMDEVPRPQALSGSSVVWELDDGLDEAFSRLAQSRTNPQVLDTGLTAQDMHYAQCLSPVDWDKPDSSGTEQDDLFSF
Text: (§1) Fig. 2. Adaptor protein binding to integrin β subunits. (A) Colocalization of integrin chimeras fused to the promiscuous biotin ligase BirA* (green in merge) with vinculin (red; left panels) or clathrin (red; right panels) in PA-JEB/β4 keratinocytes. Actin is shown in blue. Nuclei are stained with DAPI (cyan). Scale bars: 20 μm. (B) Representative western blots of BioID assays performed using the integrin chimeras shown in A. Quantifications of ARH, Numb and talin signal intensities normalized to streptavidin-HRP levels are shown (n=3; bars show mean±s.d.). (C) Representative western blots of pulldown assays (from two repeats) using synthetic integrin β cytoplasmic domains in RAC-11P cell lysates.
The full-length human ARH gene was cloned into the pETNKI-6xhis-3C-LIC vector ([Luna-Vargas et al., 2011]) and 6xhis–ARH protein was produced in Bl21(DE3) E. coli cells. Cells were grown at 37°C until an optical density at 600 nm (OD600) of 0.6 was reached. Temperature was reduced to 30°C and protein was expressed upon induction with 0.4 mM IPTG for 3.5 h. Cells were harvested and resuspended in lysis buffer (20 mM HEPES, pH 7.5, 200 mM NaCl, 1 mM TCEP and 5 μg ml^−1 DNase). After sonication, cell debris and insoluble proteins were removed by centrifugation (21,000 g for 30 min). 6xhis–ARH was purified from the soluble fraction using nickel Sepharose beads and eluted in 20 mM HEPES, pH 7.5, 200 mM NaCl, 1 mM TCEP and 250 mM imidazole. Fractions containing 6xhi–ARH were further purified on a SEC650 size exclusion column (Bio-Rad), equilibrated with 20 mM HEPES, pH 7.5, 100 mM NaCl and 1 mM TCEP.
(§2) All MST measurements were performed on a Monolith NT.115 red-blue (Nanotemper, Munich, Germany) using premium-coated capillaries to reduce non-specific interaction of the proteins with the glass surface. Both interaction partners (ligand and receptor) were transferred into MST buffer (20 mM Tris-HCl pH 7.5, 200 mM sodium chloride, 1 mM TCEP and 0.05% Tween-20) to avoid artifacts derived from buffer mismatches. […] Data was analyzed using the MO Affinity Analysis Software (Nanotemper).

Numb-PTB (20-175) = biological target: T2, Numb-PTB (20-175) (Homo sapiens, UniProt P49757); assay: Microscale thermophoresis (MST), Numb; type: binding; settings: concentration range tested up to 50 µM for β1
T2 construct: A pETNKI-6xhis-3C-Numb-PTB (20-175) construct was expressed in Rosetta2 (DE3) cells; 6xHis-3C (N, cleaved yes); made in house; host or cells: E. coli Rosetta2 (DE3)
T2 sequence (P49757 20-175): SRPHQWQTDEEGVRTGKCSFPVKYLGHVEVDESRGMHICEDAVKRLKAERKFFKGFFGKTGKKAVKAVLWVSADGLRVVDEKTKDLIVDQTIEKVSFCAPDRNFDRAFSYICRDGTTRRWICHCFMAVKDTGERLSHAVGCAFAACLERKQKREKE
Text: as §1
A pETNKI-6xhis-3C-Numb-PTB (20-175) construct was expressed in Rosetta2 (DE3) cells for 18 h at 20°C. Cells were lysed (25 mM Tris-HCl pH 8.0, 10 mM imidazole, 200 mM NaCl, 1 mM TCEP, 5 μg/ml DNase) and sonicated, after which insoluble proteins and cell debris were removed by centrifugation (21,000 g for 30 min at 4°C). Soluble lysate was applied to a nickel Sepharose column and beads were washed with wash buffer (lysis buffer without DNase) before protein was eluted in wash buffer supplemented with 250 mM imidazole. The 6xhis tag was cleaved off by his-3C protease during dialysis against 25 mM Tris-HCl pH 8.0, 100 mM NaCl, 1 mM TCEP, 16 h at 4°C. Elution fractions were pooled, diluted with six volumes of 20 mM HEPES pH 7.5, 1 mM TCEP and applied to a 1 ml Resource S cation-exchange column (Cytiva). Protein was eluted in a NaCl gradient (50–700 mM) in 25 mM HEPES (pH 7.5). 6xhis-Numb-PTB was concentrated and further purified by size-exclusion chromatography (SEC70 column, Bio-Rad) in 25 mM Tris-HCl pH 8.0, 200 mM NaCl and 1 mM TCEP.
All MST measurements were performed on a Monolith NT.115 red-blue (Nanotemper, Munich, Germany) using premium-coated capillaries to reduce non-specific interaction of the proteins with the glass surface. […] Data was analyzed using the MO Affinity Analysis Software (Nanotemper).

kindlin-2 = assay: Microscale thermophoresis (MST), kindlin-2; type: binding; settings: titration of kindlin-2 to 200 nM ATTO488-labeled cytoplasmic tail peptide; n≥3
Protocol: Kindlin-2 was expressed and purified as described in [Böttcher et al. (2017)]. Briefly, kindlin constructs were cloned into pCoofy17 ([Scholz et al., 2013]), which adds an N-terminal His10-Sumo tag and expressed soluble in E. coli Rosetta at 18°C overnight. After purification by immobilized-metal affinity chromatography (IMAC) in high-salt TBS buffer (20 mM Tris, pH 7.5, 500 mM NaCl, 1 mM TCEP), the Sumo tag was removed by SenP2 (obtained from MPIB Biochemistry Core Facility) digest overnight and the protein was further purified by SEC using TBS (20 mM Tris-HCl pH 7.5, 200 mM NaCl, 1 mM TCEP) containing 5% glycerol as running and storage buffer. After the final chromatography, the purity, integrity and identity of recombinant kindlin-2 and talin-1 head domain were controlled by UV spectrum, SDS-PAGE, high-resolution total mass and dynamic light scattering (DLS).
as §2, with “(Nanotemper). […]” for “(Nanotemper).”

ARH = assay: Peptide pulldown, ARH; type: binding; settings: desthiobiotin tail peptide on streptavidin beads, RAC-11P lysate, 4°C, 4 h; western blot; two repeats
Protocol: (§3) Peptide pulldowns were carried out as previously described ([Böttcher et al., 2012]) with the mouse β1 wild-type cytoplasmic tail peptide ([…]-OH) and a scrambled peptide ([…]-OH), mouse β3 wild-type tail peptide ([…]-OH), mouse β5 wild-type tail peptide ([…]-OH), β5 Δ8aa tail peptide ([…]-OH) and scrambled peptide […].
(§4) The tail peptides were synthesized de novo with a desthiobiotin on the N-terminus, coupled to Dynabeads MyOne streptavidin C1 (10 mgml^−1, Invitrogen) and incubated with RAC-11P cell lysates (prepared with M-PER reagent, Thermo Fisher Scientific) at 4°C with rotation for 4 h. After three washes with wash buffer (M-PER diluted 1:1 with PBS), bound proteins were eluted in 2× Laemmli buffer at 95°C for 5 min and separated on an 8% SDS-PAGE gel.

Numb = assay: Peptide pulldown, Numb; type: binding; settings: desthiobiotin tail peptide on streptavidin beads, RAC-11P lysate, 4°C, 4 h; western blot; two repeats
Protocol: as §3, §4

talin = assay: Peptide pulldown, talin; type: binding; settings: desthiobiotin tail peptide on streptavidin beads, RAC-11P lysate, 4°C, 4 h; western blot; two repeats
Protocol: as §3, §4

KANK-2 = assay: Peptide pulldown, KANK-2; type: binding; settings: desthiobiotin tail peptide on streptavidin beads, RAC-11P lysate, 4°C, 4 h; western blot; two repeats
Protocol: as §3, §4

kindlin-1/2 = assay: Peptide pulldown, kindlin-1/2; type: binding; settings: desthiobiotin tail peptide on streptavidin beads, RAC-11P lysate, 4°C, 4 h; western blot; two repeats
Protocol: as §3, §4

[1] = tested on: integrin β5 clustering in SW620, HT29 and SW480 cells; assay: Inhibition of β5 clustering (confocal microscopy); type: cell-based, human; settings: cells fixed after 3 days of cilengitide treatment
Protocol: (§5) Fig. 6. Integrin β5 promotes colorectal cancer cell proliferation. […] Cells were fixed after 3 days of treatment and β5 (green in merge) and vinculin (magenta) were visualized using confocal microscopy. Cell nuclei are shown in blue. Scale bars: 20 μm. (B) Cells were seeded on day 0 and proliferation was measured from day 1–5 in cells with or without cilengitide (added at day 1). (C,E) FACS plots showing the expression of β5 in SW620 (C) and HT29 (E) wild-type (WT) and β5 knockout cells. Cells stained with a secondary PE-conjugated antibody only were used as negative control (n=2). (D,F) Proliferation of SW620 and HT29 wild-type and β5 knockout cells. (G) Representative IF images showing integrin β5 (green in merge), vinculin (red), actin (blue), nuclei (cyan) in SW620 wild-type, β5-deficient, and cilengitide-treated cells that were cultured for 5 days on coverslips prior to fixation. Scale bars: 100 μm. (H,I) Proliferation of SW620 (H) and HT29 (I) wild-type and β5 knockout cells on 3.2 μg ml^−1 collagen. Results shown represent mean±s.d. of three biological replicates, of which each experiment was performed in triplicate. *P<0.05 (two-sided unpaired Student's t-test).
(§6) PA-JEB/β4 keratinocytes were seeded on glass coverslips and cultured in complete KGM medium for 24 h, and then treated with DMEM plus 10% FCS for 24 h. […]

SW620 cells [2] = assay: Proliferation assay (Crystal Violet), SW620; type: cell-based, human; settings: cilengitide added at day 1, measured day 1–5; concentration optimised per cell line, not given; three biological replicates
Protocol: as §5, with “Results shown represent mean±s.d. of three biological replicates, of which each experiment was performed in triplicate. *P<0.05 (two-sided unpaired Student's t-test).” left out
(§7) Cells were seeded at a density of 5×10^4 cells per well in a 96-well plate and treated with cilengitide or DMSO, as indicated in the figure legend. […] Cells were air-dried overnight and lysed in 2% SDS, after which the OD value of Crystal Violet at 490 nm was determined using an Epoch microplate reader equipped with Gen5 software. […]

HT29 cells = assay: Proliferation assay (Crystal Violet), HT29; type: cell-based, human; settings: cilengitide added at day 1, measured day 1–5; concentration optimised per cell line, not given; three biological replicates
Protocol: as §5, with “Results shown represent mean±s.d. of three biological replicates, of which each experiment was performed in triplicate. *P<0.05 (two-sided unpaired Student's t-test).” left out
as §7

SW480 cells = assay: Proliferation assay (Crystal Violet), SW480; type: cell-based, human; settings: cilengitide added at day 1, measured day 1–5; concentration optimised per cell line, not given; three biological replicates
Protocol: as §5, with “Results shown represent mean±s.d. of three biological replicates, of which each experiment was performed in triplicate. *P<0.05 (two-sided unpaired Student's t-test).” left out
as §7

SW620 cells [3] = assay: Cell growth morphology (immunofluorescence), SW620; type: cell-based, human; settings: cilengitide-treated SW620 cells cultured for 5 days on coverslips; control cells mainly formed a 2D monolayer
Protocol: as §5, §6

integrin αVβ3/αVβ5 = settings: stated as known, no reference given; cited from earlier work
Text: The integrin β5 plays a role in breast cancer and osteosarcoma cell proliferation ([Bianchi-Smiraglia et al., 2013]; [Lock et al., 2018]). Here, we analyzed the role of integrin β5 in cell proliferation of SW620, HT29 and SW480 colorectal cancer cells, in which β5 localizes predominantly in FCLs, FAs or is distributed equally in both adhesions, respectively. Because none of these cell lines express the integrin β3 subunit (Fig. S5A), we used the integrin αVβ3/αVβ5 antagonist cilengitide as a tool to inhibit αVβ5 function. The optimal concentration for inhibition was determined for each cell li ...

Row | binding to kindlin by MST (kindlin-2) | Substance | binding to ARH by MST (β1) (full-length human ARH) | binding to Numb by MST (β1) (Numb-PTB (20-175)) | interaction with ARH in pulldown (ARH) | interaction with Numb in pulldown (Numb) | interaction with talin in pulldown (talin) | interaction with KANK-2 in pulldown (KANK-2) | interaction with kindlin-1/2 in pulldown (kindlin-1/2) | inhibition of β5 clustering [1] | proliferation, SW620 (SW620 cells [2]) | proliferation, HT29 (HT29 cells) | proliferation, SW480 (SW480 cells) | growth phenotype (SW620 cells [3]) | integrin αVβ3/αVβ5 antagonism (integrin αVβ3/αVβ5)
1 | much higher affinity than β3 and β5 | HDRREFAKFEKEKMNAKWDTGENPIYKSAVTTVVNPKYEGK-OH [β1, synthetic integrin β1 cytoplasmic tail peptide] | no binding; also recorded: unable to detect binding | no binding; also recorded: unable to detect binding | not β1 and β3, bind to Numb and ARH | not β1 and β3, bind to Numb and ARH | interaction | interaction | interaction |  |  |  |  |  | 
2 |  | cilengitide (RGDFV; chains of the INN, looked up) [integrin αVβ3/αVβ5 antagonist] |  |  |  |  |  |  |  | Inhibition of β5 clustering | significant decrease in proliferation | significant decrease in proliferation | significant decrease in proliferation | grew on top of each other | antagonist
